By IC50 is commonly meant the concentration that gives 50% inhibition.

Values joined by “and” are separate entries in the source; they are usually repeats but may differ in a detail not shown here. Equal values may be shown once. Where a name gives a salt, the structure may show the parent alone.

In the experiment the target is human P2X4 receptor (Homo sapiens (Human), UniProt Q99571). The experiment can be described thus: P2X4 receptor antagonist activity (ATP-induced intracellular calcium, Fura-2 AM). As to conditions: 1321N1 cells stably expressing human P2X4 receptor; test substance 15 minutes before addition of ATP; Fura-2 AM F340/F380; read-out: Inhibitory activity IC50. It is filed as cell-based. On the procedure: The ATP receptor (human P2X4) was introduced into the 1321N1 cells, and the cells were used as a stable ATP receptor expression system. The P2X4-expressing 1321N1 cells were seeded on a 96-well plate, cultured under the conditions of 37° C. and 5% CO2 for 24 hours, and used for calcium measurement. […] For the measurement, a microplate reader, Fluostar Optima (BMG Labtech), was used. The light emitted from a xenon lamp was passed through 340 nm and 380 nm filters, respectively, and irradiated on the cells, fluorescences of 510 nm, F340 and F380, emitted from the cells were measured, and change of the ratio F340/F380 was used as an index of change of intracellular calcium level. The measurement was performed by adding ATP to each well at a final concentration of 1 μM, and observing the ATP-induced Ca^2+ response over time.
Sequence of human P2X4 receptor (Q99571 whole entry): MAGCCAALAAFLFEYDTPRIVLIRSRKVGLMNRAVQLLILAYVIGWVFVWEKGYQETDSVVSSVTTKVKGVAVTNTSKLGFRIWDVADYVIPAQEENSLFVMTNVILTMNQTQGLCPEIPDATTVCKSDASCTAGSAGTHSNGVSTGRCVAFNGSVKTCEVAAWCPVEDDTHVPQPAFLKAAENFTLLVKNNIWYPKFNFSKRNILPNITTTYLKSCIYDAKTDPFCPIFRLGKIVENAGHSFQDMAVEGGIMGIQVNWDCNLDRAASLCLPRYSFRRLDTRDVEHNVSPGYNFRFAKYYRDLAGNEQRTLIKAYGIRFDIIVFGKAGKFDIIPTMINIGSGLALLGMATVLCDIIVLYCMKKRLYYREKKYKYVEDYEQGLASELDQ
The 1321N1 cells stably expressing human P2X4 receptor were seeded on a 96-well plate, cultured under the conditions of 37° C. and 5% CO2 for 24 hours, and then used for intracellular calcium measurement. Fura-2 AM, which is a calcium fluorescent indicator, was used for the intracellular calcium measurement. […] The ratio of fluorescence values obtained with excitation lights of 340 nm and 380 nm was used as an index of the change of intracellular calcium level, and the inhibitory activity of the test substance was calculated on the basis of the comparison with the value obtained in the absence of the test substance (control).
For orientation: Calcium assays in cells follow changes in intracellular calcium, usually with a dye or a luminescent sensor.
As for `CN(C)c1ccccc1Cc1nnnn1-c1ccc(N2C(=O)CC(=O)Nc3c2ccc2ccccc32)cc1` [Example 47, 5-[4-[5-[2-(Dimethylamino)benzyl]-1H-tetrazol-1-yl]phenyl]-1H-naphtho[1,2-b][1,4]diazepine-2,4(3H,5H)-dione mesylate], the concentration for half-maximal inhibition (IC50) was 94 nM.

Take `O=C1CC(=O)N(c2ccc(-c3nccn3Cc3ccc(Cl)cc3)cc2)c2ccc3ccccc3c2N1` [Example 23, 5-[4-[1-(4-Chlorobenzyl)-1H-imidazol-2-yl]phenyl]-1H-naphtho[1,2-b][1,4]diazepine-2,4(3H,5H)-dione hydrochloride]: the IC50 was determined as 300 nM.

As for `COc1cccc(CCc2nccn2-c2ccc(N3C(=O)CC(=O)Nc4c3ccc3c4CCC3)cc2)c1` [Example 61, 5-[4-[2-(3-Methoxyphenethyl)-1H-imidazol-1-yl]phenyl]-5,8,9,10-tetrahydroindeno[4,5-b][1,4]diazepine-2,4(1H,3H)-dione hydrochloride], the 50% inhibitory concentration (IC50) came to 74 nM.

Consider `N#Cc1ccccc1CCc1nccn1-c1ccc(N2C(=O)CC(=O)Nc3c2ccc2ccccc32)cc1` [Example 54, 2-[2-[1-[4-(2,4-Dioxo-3,4-dihydro-1H-naphtho[1,2-b][1,4]diazepin-5(2H)-yl)phenyl]-1H-imidazol-2-yl]ethyl]benzonitrile], for which the IC50 was 190 nM.

As for `O=C1CC(=O)N(c2ccc(-n3ccnc3CCc3ccccc3F)cc2)c2ccc3c(c2N1)CCC3` [Example 67, 5-[4-[2-(2-Fluorophenethyl)-1H-imidazol-1-yl]phenyl]-5,8,9,10-tetrahydroindeno[4,5-b][1,4]diazepine-2,4(1H,3H)-dione], the 50% inhibitory concentration (IC50) is 53 nM.

Turning to `NC(=O)c1cccc(CCc2nccn2-c2ccc(N3C(=O)CC(=O)Nc4c3ccc3ccccc43)cc2)c1` [Example 57, 3-[2-[1-[4-(2,4-Dioxo-3,4-dihydro-1H-naphtho[1,2-b][1,4]diazepin-5(2H)-yl)phenyl]-1H-imidazol-2-yl]ethyl]benzamide], the IC50 was 130 nM.

As to `O=C1CC(=O)N(c2ccc(-n3nnnc3CCc3cccnc3)cc2)c2ccc3ccccc3c2N1` [Example 3, 5-[4-[5-[2-(Pyridin-3-yl)ethyl]-1H-tetrazol-1-yl]phenyl]-1H-naphtho[1,2-b][1,4]diazepine-2,4(3H,5H)-dione hydrochloride], the IC50 amounted to 380 nM.

In the case of `O=C1CN=C(c2ccc(-n3ccnc3CCc3ccccc3)cc2)c2ccc3ccccc3c2N1` [Example 41, 5-[4-(2-Phenethyl-1H-imidazol-1-yl)phenyl]-1H-naphtho[1,2-e][1,4]diazepin-2(3H)-one dihydrochloride], the IC50 is 650 nM.

`O=C1CC(=O)N(c2ccc(-n3ccnc3CCc3ccco3)cc2)c2ccc3ccccc3c2N1` [Example 66, 5-[4-[2-[2-(Furan-2-yl)ethyl]-H-imidazol-1-yl]-phenyl]-1H-naphtho[1,2-b][1,4]diazepine-2,4(3H,5H)-dione hydrochloride]: the IC50 was determined as 550 nM.

Regarding `COc1ccccc1Cc1nnnn1-c1ccc(N2C(=O)CC(=O)Nc3c2ccc2ccccc32)cc1` [Example 1, 5-[4-[5-(2-Methoxybenzyl)-1H-tetrazol-1-yl]phenyl]-1H-naphtho[1,2-b][1,4]diazepine-2,4(3H,5H)-dione], the IC50 was 25 nM.

For `O=C1CC(=O)N(c2ccc(-c3nccn3CCc3ccccc3)cc2)c2ccc3ccccc3c2N1` [Example 22, 5-[4-(1-Phenethyl-1H-imidazol-2-yl)phenyl]-1H-naphtho[1,2-b][1,4]diazepine-2,4(3H,5H)-dione hydrochloride], the IC50 came out at 91 nM.

As to `O=C1CC(=O)N(c2ccc(-n3ccnc3CCc3cccc(F)c3)cc2)c2ccc3c(c2N1)CCC3` [Example 79, 5-[4-[2-(3-Fluorophenethyl)-1H-imidazol-1-yl]phenyl]-5,8,9,10-tetrahydroindeno[4,5-b][1,4]diazepine-2,4(1H,3H)-dione hydrochloride], the IC50 stood at 39 nM.

For `COc1ccccc1-c1nccn1-c1ccc(N2C(=O)CC(=O)Nc3c2ccc2ccccc32)cc1` [Example 51, 5-[4-[2-(2-Methoxyphenyl)-1H-imidazol-1-yl]phenyl]-1H-naphtho[1,2-b][1,4]diazepine-2,4(3H,5H)-dione], the IC50 turned out to be 1700 nM.

As for `O=C1CC(=O)N(c2ccc(-n3ccnc3CCc3cccc(O)c3)cc2)c2ccc3ccccc3c2N1` [Example 43, 5-[4-[2-(3-Hydroxyphenethyl)-1H-imidazol-1-yl]phenyl]-1H-naphtho[1,2-b][1,4]diazepine-2,4(3H,5H)-dione hydrochloride], the IC50 was 53 nM and 190 nM.

In the case of `COc1cc(N2C(=O)CC(=O)Nc3c2ccc2ccccc32)ccc1-c1nccn1CCc1ccccc1` [Example 64, 5-[3-Methoxy-4-(1-phenethyl-1H-imidazol-2-yl)-phenyl]-1H-naphtho[1,2-b][1,4]diazepine-2,4(3H,5H)-dione], the IC50 is 520 nM.

`O=C1CC(=O)N(c2ccc(-n3ccnc3CCc3ccsc3)cc2)c2ccc3ccccc3c2N1` [Example 62, 5-[4-[2-[2-(Thiophen-3-yl)ethyl]-1H-imidazol-1-yl]phenyl]-1H-naphtho[1,2-b][1,4]diazepine-2,4(3H,5H)-dione hydrochloride]: the IC50 turned out to be 88 nM.

As for `CC1(C)CN(c2ccc(N3C(=O)CC(=O)Nc4c3ccc3ccccc43)cc2)C(CCc2ccccc2)=N1` [Example 74, 5-[4-(4,4-Dimethyl-2-phenethyl-4,5-dihydro 1H-imidazol-1-yl)phenyl]-1H-naphtho[1,2-b][1,4]diazepine-2,4(3H,5H)-dione hydrochloride], the IC50 is 2500 nM.

For “5-[4-[(5-Phenylethyl)-1H-imidazol-4-yl]phenyl]-1H-naphtho[1,2-b][1,4]diazepine-2,4(3H,5H)-dione hydrochloride [Example 73]”, the IC50 was 320 nM.

For `O=C1CC(=O)N(c2ccc(-n3ccnc3CNc3ccccc3)cc2)c2ccc3ccccc3c2N1` [Example 80, 5-[4-[2-[(Phenylamino)methyl]-1H-imidazol-1-yl]phenyl]-1H-naphtho[1,2-b][1,4]diazepine-2,4(3H,5H)-dione], the IC50 stood at 1300 nM.

Take `CC(C)(Cc1nnnn1-c1ccc(N2C(=O)CC(=O)Nc3c2ccc2ccccc32)cc1)c1ccccn1` [Example 69, 5-[4-[5-[2-Methyl-2-(pyridin-2-yl)propyl]-1H-tetrazol-1-yl]phenyl]-1H-naphtho[1,2-b][1,4]diazepine-2,4(3H,5H)-dione hydrochloride]: the IC50 came out at 5400 nM.

Regarding `O=C1CC(=O)N(c2ccc(-n3nnnc3Cc3ccccc3O)cc2)c2ccc3ccccc3c2N1` [Example 2, 5-[4-[5-(2-Hydroxybenzyl)-1H-tetrazol-1-yl]phenyl]-1H-naphtho[1,2-b][1,4]diazepine-2,4(3H,5H)-dione], the IC50 is 37 nM.

As for `O=C1CC(=O)N(c2ccc(-n3ccnc3CCc3cccc(F)c3)cc2)c2ccc3ccccc3c2N1` [Example 31, 5-[4-[(2-(3-Fluorophenyl)ethyl)-1H-imidazol-1-yl]phenyl]-1H-naphtho[1,2-b][1,4]diazepine-2,4(3H,5H)-dione hydrochloride], the IC50 stood at 51 nM.

For the compound `O=C1CC(=O)N(c2ccc(-n3nnnc3Cc3ccccc3O)nc2)c2ccc3ccccc3c2N1` [Example 11], the IC50 amounted to 77 nM.

Regarding `O=C1CN=C(c2ccc(-n3nnnc3CCc3ccccc3)cc2)c2ccc3ccccc3c2N1` [Example 40, 5-[4-(5-Phenethyl-1H-tetrazol-1-yl)phenyl]-1H-naphtho[1,2-e][1,4]diazepin-2(3H)-one], the IC50 turned out to be 630 nM.

For the compound `O=C1CC(=O)N(c2ccc(-c3nc[nH]c3-c3ccccc3)cc2)c2ccc3ccccc3c2N1` [Example 72, 5-[4-(5-Phenyl-1H-imidazol-4-yl)phenyl]-1H-naphtho[1,2-b][1,4]diazepine-2,4(3H,5H)-dione hydrochloride], the IC50 stood at 3400 nM.

In the case of `O=C1CC(=O)N(c2ccc(-c3nccn3CCc3cccc(O)c3)cc2)c2ccc3ccccc3c2N1` [Example 27, 5-[4-[1-(3-Hydroxyphenethyl)-1H-imidazol-2-yl]phenyl]-1H-naphtho[1,2-b][1,4]diazepine-2,4(3H,5H)-dione], the IC50 was found to be 78 nM.

In the case of `O=C1CC(=O)N(c2ccc(-n3ccnc3-c3ccccc3)cc2)c2ccc3ccccc3c2N1` [Example 50, 5-[4-(2-Phenyl-1H-imidazol-1-yl)phenyl]-1H-naphtho[1,2-b][1,4]diazepine-2,4(3H,5H)-dione], the IC50 was found to be 3700 nM.

On to `COc1cccc(CCn2ccnc2-c2ccc(N3C(=O)CC(=O)Nc4c3ccc3ccccc43)cc2)c1` [Example 25, 5-[4 [1-(3-Methoxyphenethyl)-1H-imidazol-2-yl]phenyl]-1H-naphtho[1,2-b][1,4]diazepine-2,4(3H,5H)-dione], for which the IC50 was 82 nM.

For the compound `NC(=O)c1ccccc1Cn1ccnc1-c1ccc(N2C(=O)CC(=O)Nc3c2ccc2ccccc32)cc1` [Example 53, 2-[[2-[4-(2,4-Dioxo-3,4-dihydro-1H-naphtho[1,2-b][1,4]diazepin-5(2H)-yl)phenyl]-1H-imidazol-1-yl]methyl]benzamide], the IC50 was 590 nM.

Take `O=C1CC(=O)N(c2ccc(-n3ccnc3CCc3cccc(C(F)(F)F)c3)cc2)c2ccc3ccccc3c2N1` [Example 38, 5-[4-[2-[3-(Trifluoromethyl)phenylethyl]-1H-imidazol-1-yl]phenyl]-1H-naphtho[1,2-b][1,4]diazepine-2,4(3H,5H)-dione hydrochloride]: the IC50 was determined as 550 nM.

These data come from patent US9873683B2, “P2X4 receptor antagonist” (NIPPON CHEMIPHAR CO., LTD., priority 2013, dated 2018).
